Reference: patent publication US8153791B2, “Substituted pyrimidinyl oxime kinase inhibitors” (Janssen Pharmaceutica N.V., priority 2005, dated 2012)
Like-named read-outs stand apart in the source and are kept apart here.

Experiments:
[1] = biological target: T1, EGFR (Homo sapiens, UniProt P00533); assay: EGFR Kinase Assay; type: biochemical;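 also: recombinant GST-tagged EGFR expressed in Sf9 cells, phosphorylating biotinylated polyGluTyr with γ-33P ATP on Streptavidin Flashplates, 1 h at 30 °C, scintillation counting, inhibition relative to plate maximum and minimum signals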
T1 construct: The intracellular portion of EGFR started at nucleotide 2189 (corresponding to amino acid 667) and ended at the termination codon; made in house; host or cells: Sf9 insect cells (baculovirus)
T1 sequence (P00533 669-1210 limits assumed): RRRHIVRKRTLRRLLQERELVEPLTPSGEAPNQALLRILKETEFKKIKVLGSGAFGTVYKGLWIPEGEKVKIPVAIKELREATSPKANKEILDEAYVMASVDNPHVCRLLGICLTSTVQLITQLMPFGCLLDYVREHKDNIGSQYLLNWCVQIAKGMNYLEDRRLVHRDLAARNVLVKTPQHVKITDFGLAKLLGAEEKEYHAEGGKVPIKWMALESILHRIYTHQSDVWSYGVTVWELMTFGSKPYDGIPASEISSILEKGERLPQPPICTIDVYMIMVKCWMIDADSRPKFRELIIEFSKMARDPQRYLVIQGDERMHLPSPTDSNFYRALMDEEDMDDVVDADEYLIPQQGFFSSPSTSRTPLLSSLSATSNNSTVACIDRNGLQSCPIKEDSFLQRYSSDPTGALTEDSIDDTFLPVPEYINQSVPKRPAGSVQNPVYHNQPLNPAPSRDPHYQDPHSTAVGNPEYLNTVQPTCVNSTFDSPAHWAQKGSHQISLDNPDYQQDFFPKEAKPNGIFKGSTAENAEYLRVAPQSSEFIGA

[2] = biological target: T2, HER-2 (Homo sapiens, UniProt P04626); assay: HER-2 Kinase Assay; type: biochemical; conditions: read-out: HER2 IC50;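 also: HER2 kinase reaction read by scintillation counting, inhibition scaled between maximum and minimum signals set on each plate, IC50 from inhibition against log concentration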
T2 construct: purchased Proqinase (Freiburg, Germany)
T2 sequence (P04626 679-1255): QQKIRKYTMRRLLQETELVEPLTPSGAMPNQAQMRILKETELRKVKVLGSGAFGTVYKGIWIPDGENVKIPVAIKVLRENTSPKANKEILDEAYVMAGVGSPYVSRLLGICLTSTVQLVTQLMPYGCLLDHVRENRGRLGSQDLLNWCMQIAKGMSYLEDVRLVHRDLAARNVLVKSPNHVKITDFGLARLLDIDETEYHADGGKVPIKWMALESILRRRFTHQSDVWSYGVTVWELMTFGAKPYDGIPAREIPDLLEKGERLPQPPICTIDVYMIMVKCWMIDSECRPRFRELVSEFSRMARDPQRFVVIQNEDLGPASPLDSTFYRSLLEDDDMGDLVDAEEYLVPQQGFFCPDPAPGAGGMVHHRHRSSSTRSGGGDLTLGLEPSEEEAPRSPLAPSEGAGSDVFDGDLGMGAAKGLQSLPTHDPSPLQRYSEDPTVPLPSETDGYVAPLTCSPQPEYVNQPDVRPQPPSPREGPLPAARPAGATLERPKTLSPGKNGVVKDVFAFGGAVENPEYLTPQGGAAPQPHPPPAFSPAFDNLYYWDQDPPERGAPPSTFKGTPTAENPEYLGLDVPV

[3] = system: HeLa cervical adenocarcinoma; assay: In vitro cell proliferation inhibition, HeLa; type: cell-based; conditions: Homo sapiens; HeLa cell line; ATP-Lite method or C14 thymidine method; read-out: HeLa IC50
Excerpt: (§1) The ability of a test compound to inhibit unregulated in vitro cell proliferation may be determined by measuring incorporation of ^14C-labelled thymidine into newly synthesized DNA within cell lines derived from carcinomas originating from several tissues. Accordingly, the effect of a test compound on proliferation of cells with a variety of phenotypes may be determined.
(§2) Carcinoma cell lines used include the HeLa cervical adenocarcinoma from the American Type Culture Collection (ATCC Cat. #CCL2), SK-OV-3 ovarian carcinoma (ATCC Cat. #HTB-77), MCF-7 breast carcinoma (ATCC Cat. #HTB-22), BT474 breast carcinoma (ATCC Cat. #HTB-20), SKBR3 breast carcinoma (ATCC Cat. #HTB-30), A431 epidermoid carcinoma (ATCC Cat. #CRL-1555) and NCI-N87 gastric carcinoma (ATCC Cat. #CRL-5822).
(§3) The carcinoma cells are trypsinized and counted. The cells (3000-8000 count) are added to each well of a 96-well CytoStar tissue culture treated scintillating microplate (Amersham #RPNQ0160) in complete medium (100 μL) and the plate is then incubated in complete medium for 24 hrs at 37° C. in an inert atmosphere containing 5% CO2.
(§4) Test compound (1 μL) in 100% DMSO is added to the plate test-wells with DMSO only added to control-wells. The plate is incubated in complete medium for a second 24 hr period at 37° C. in an atmosphere containing 5% CO2.
(§5) An aliquot of a solution of Methyl ^14C-thymidine (56 mC/mmol) (NEN #NEC568 or Amersham #CFA532) and complete medium (20 μL to provide 0.2 μCi/well) is then added to each well and the plate is incubated for a third 24 hr period at 37° C. in an atmosphere containing 5% CO2.
(§6) The plate contents are then discarded, the plate is washed twice with PBS (200 μL) and then PBS (200 μL) is added to each well. The plate is sealed and the degree of methyl ^14C-thymidine incorporation is quantified on a Packard Top Count.
(§7) Cell proliferation of the Hela cell line was measured using the ATP-Lite method as described in the ATP Lite Kit (Perkin-Elmer Kit Number 6106941) or the C^14 method as described above. Cell proliferation of the other cell lines was measured using the C^14 method.
(§8) The term “NT” means that the compound indicated was not tested in a particular cell line. The lack of such testing is not intended to imply a belief that the compound is not otherwise active in a particular cell line or any other cell line not tested.

[4] = system: SK-OV-3 ovarian carcinoma; assay: In vitro cell proliferation inhibition, SK-OV-3; type: cell-based; conditions: Homo sapiens; SK-OV-3 cells, 14C-thymidine incorporation
Excerpt: as §1, §2, §3, §4, §5, §6, §7, §8

[5] = system: MCF-7 breast carcinoma; assay: In vitro cell proliferation inhibition, MCF-7; type: cell-based; conditions: Homo sapiens, MCF7; MCF-7 cells, 14C-thymidine incorporation
Excerpt: as §1, §2, §3, §4, §5, §6, §7, §8

[6] = system: BT474 breast carcinoma; assay: In vitro cell proliferation inhibition, BT474; type: cell-based; conditions: Homo sapiens, BT-474; BT474 cells, 14C-thymidine incorporation; read-out: IC50 BT474
Excerpt: as §1, §2, §3, §4, §5, §6, §7, §8

[7] = system: SKBR3 breast carcinoma; assay: In vitro cell proliferation inhibition, SKBR3; type: cell-based; conditions: Homo sapiens, SK-BR-3; SKBR3 cells, 14C-thymidine incorporation; read-out: IC50 SKBR3
Excerpt: as §1, §2, §3, §4, §5, §6, §7, §8

[8] = system: NCI-N87 gastric carcinoma; assay: In vitro cell proliferation inhibition, NCI-N87; type: cell-based; conditions: Homo sapiens, NCI-N87; N87 cells, 14C-thymidine incorporation; read-out: IC50 N87
Excerpt: as §1, §2, §3, §4, §5, §6, §7, §8

[9] = system: N87 gastric carcinoma cells; assay: N87 Human Tumor Xenograft Model; type: in vivo, nu/nu mice; conditions: treatment groups 5-10, 100 mg/kg oral once daily for 30 days
Excerpt: The N87 gastric carcinoma cell line overexpresses HER-2 as a result of gene amplification and forms tumors in nude mice (Kasprzyk P G, Song S U, Di Fiore P P, King C R, Therapy of an animal model of human gastric cancer using a combination of anti-erbB-2 monoclonal antibodies, Cancer Res., 1992, 52, 2771-2776).
Female nu/nu mice (Charles River; 8 to 9 weeks of age) were implanted subcutaneously with from 3×10^6 to 5×10^6 N87 gastric carcinoma cells (obtained from the American Type Culture Collection, ATCC Cat. #CRL-5822) in the flank. Animals were weighed twice weekly during the study and examined frequently.
Tumor size was monitored twice weekly and then daily as the neoplasms reached the target weight range (about 75 mg). Animals were pair-matched when tumors were in the 62 to 126 mg range (group mean tumor size: 70 to 74 mg). Estimated tumor weight was calculated using the formula: […]
A test compound was orally administered daily in the test treatment group after the tumor reached the target weight. For treatment group 1, the test compound was administered once daily for 35 days. For treatment group 2, the test compound was administered once daily for 30 days. For treatment group 3, each dose of test compound was administered once daily for 30 days. For treatment group 4, each dose of test compound was administered once daily for 36 days. For treatment group 5-10, the test compound was administered once daily for 30 days.
Tumor weight was measured daily for subjects (n=8) in the test group and the matched subjects (n=8) in the vehicle-treated group.
The tumor growth inhibition (in percent) was calculated on the last day of the study using the formula: […]
(§9) Statistical significance was evaluated by comparing the vehicle group to the test group using a two tailed Students t test. The term “NC” means that the P value for the treatment group indicated was not calculated. The lack of such calculation is not intended to imply a belief that the activity of the compound is not otherwise statistically significant in this particular cell line or in any other cell line not tested.

[10] = system: A431 epidermoid carcinoma cells; assay: A431 Human Tumor Xenograft Model; type: in vivo, nu/nu mice; conditions: treatment groups 5-10, 100 mg/kg oral once daily for 30 days
Excerpt: The A431 epidermoid carcinoma cell line overexpresses EGFR, activating signaling pathways responsible for driving the proliferation, invasion and survival of cancer cells and forming tumors in nude mice (Giard D J, Aaronson S A, Todaro G J, Arnstein P, Kersey J H, Dosik H, Parks W P, In vitro cultivation of human tumors: establishment of cell lines derived from a series of solid tumors, J. Natl. Cancer Inst., 1973, 51, 1417-1423; and, Kawamoto T, Sato J D, Le A, Polikoff J, Sato G H, Mendelsohn J, Growth stimulation of A431 cells by epidermal growth factor: identification of high-affinity receptors for epidermal growth factor by an anti-receptor monoclonal antibody, Proc. Natl. Acad. Sci. USA, 1983, 80, 1337-1341).
Female nu/nu mice (Charles River; 8 to 9 weeks of age) were implanted subcutaneously in the flank with 4×10^6 A431 epidermoid carcinoma cells (obtained from the American Type Culture Collection, ATCC Cat. #CRL-1555). Animals were weighed twice weekly during the study and examined frequently.
Tumor size was monitored twice weekly and then daily as the neoplasms reached the target weight range (about 75 mg). Animals were pair-matched when tumors were in the 62 to 126 mg range (group mean tumor size: 70 to 74 mg). Estimated tumor weight was calculated using the formula of Example 4.
A test compound was orally administered daily in the test treatment group after the tumor reached the target weight. For treatment groups 1 and 2, each dose of test compound was administered once daily for 25 days. For treatment group 3, each dose of test compound was administered twice daily for 25 days. For treatment group 4, the test compound was administered twice daily for 30 days. For treatment group 5-10, the test compound was administered once daily for 30 days.
as §9

[11] = system: A431 epidermoid carcinoma; assay: In vitro cell proliferation inhibition, A431; type: cell-based; conditions: Homo sapiens, A-431; A431 cells, 14C-thymidine incorporation; read-out: IC50 A431
Excerpt: as §1, §2, §3, §4, §5, §6, §7, §8

[12] = Blood-Brain Barrier Penetration (concentration in plasma and brain); type: in vivo, Sprague Dawley rats; conditions: male, Sprague Dawley, rat; for concentration at 60 min: male Sprague Dawley rats; for concentration at 120 min: 120 min (brain)
Method: The blood-brain barrier penetration of Compound 78 was examined in male Sprague Dawley rats following i.v. (3 mg/kg) or oral (10 mg/kg) administration.
The i.v. formulation consisted of a 1 mg/mL dose in vehicle (10% solutol in D5W at pH 3) with plasma samples drawn at 0.25 hours, 0.5 hours and 1 hour after administration.
The oral (p.o) formulation consisted of a 1 mg/mL dose in vehicle (0.5% methylcellulose) with plasma samples drawn at 0.5 hours, 1 hour and 2 hours after administration.
The plasma samples (0.5 ml) were collected and centrifuged (2000 rpm, 3 min), then stored at −60° C. until LC-MS/MS analysis. Brain samples were collected immediately after the last blood sample collection. The samples were rinsed with 0.9% NaCl, patted dry, then weighed and placed in Falcon 14 mL polypropylene round-bottom tubes containing 3 mL methanol. The methanolic mixtures were homogenized with an OMNI TH115 homogenizer then centrifuged for 10 minutes at 7,000 rpm. The supernatant was removed and stored frozen in 15 mL polyethylene tubes at −60° C. until LC-MS/MS analysis.

IC50 [1] [nM]	IC50 [2] [nM]	IC50 [3] [nM]	IC50 [4] [nM]	IC50 [5] [nM]	IC50 [6] [nM]	IC50 [7] [nM]	IC50 [8] [nM]	IC50 [11] [nM]	concentration at 60 min ([12]; brain, iv, 3 mg/kg, i.v. 3 mg/kg, 60 min (brain), read-out: Concentration in Brain, Mean ± SEM) [ng/g]	concentration at 120 min ([12]; brain, po, 10 mg/kg, p.o. 10 mg/kg, first of two lines so labelled, read-out: Concentration in Brain, Mean ± SEM) [ng/g]	concentration at 120 min ([12]; brain, po, 10 mg/kg, p.o. 10 mg/kg, second of two lines so labelled, read-out: Concentration in Brain, Mean ± SEM) [ng/g]	Kp at 1 h ([12]; brain/plasma, iv, i.v. 3 mg/kg, 60 min, read-out: Brain/Plasma Ratio)	Kp at 2 h ([12]; brain/plasma, po, p.o. 10 mg/kg, read-out: Brain/Plasma Ratio)	concentration at 60 min ([12]; plasma, iv, 3 mg/kg, i.v. 3 mg/kg, 60 min (plasma), read-out: Concentration in Plasma, Mean ± SEM) [ng/mL]	concentration at 60 min ([12]; plasma, po, 10 mg/kg, p.o. 10 mg/kg, 60 min (plasma), read-out: Concentration in Plasma, Mean ± SEM) [ng/mL]	Structure (SMILES)	N87 Tumor Growth Inhibition TGI [9] [%]	A431 Tumor Growth Inhibition TGI [10] [%]
20	60	19600	100000	100000	60	200	200	800	307 ± 55	46.1 ± 17.4	51.2 ± 13.7	2.5	1.2	124 ± 5.5	73.6 ± 16.4	Nc1ncnc(Nc2ccc(OCc3ccccc3)c(Cl)c2)c1/C=N/OCCN1CCOCC1 [Cpd 78]		
	60	25100			50	60	30	9								Nc1ncnc(Nc2ccc3c(ccn3Cc3cccc(F)c3)c2)c1/C=N/OCCN1CCOCC1 [Cpd 101, (5E)-4-amino-6-[1-(3-fluoro-benzyl)-1H-indol-5-ylamino]-pyrimidine-5-carbaldehyde O-(2-morpholin-4-yl-ethyl)-oxime]	66	51
20	8	22100	100000	100000	40	20	70	600								Nc1ncnc(Nc2ccc(OCc3cccc(F)c3)c(Cl)c2)c1/C=N/OCCN1CCOCC1 [Cpd 93, (5E)-4-amino-6-[3-chloro-4-(3-fluoro-benzyloxy)-phenylamino]-pyrimidine-5-carbaldehyde O-(2-morpholin-4-yl-ethyl)-oxime]	59.9	64.0
20																Nc1ncnc(Nc2ccc(OCc3ccccc3)c(Cl)c2)c1/C=N/OCCCN1CCOCC1 [Cpd 112, (5E)-4-amino-6-(4-benzyloxy-3-chloro-phenylamino)-pyrimidine-5-carbaldehyde O-(3-morpholin-4-yl-propyl)-oxime]	48.6	33

Further lines, the compound ahead of its results:

Structure (SMILES)	IC50 [1] [nM]	IC50 [2] [nM]	IC50 [3] [nM]	IC50 [4] [nM]	IC50 [5] [nM]	IC50 [6] [nM]	IC50 [7] [nM]	IC50 [8] [nM]	IC50 [11] [nM]	concentration at 60 min ([12]; brain, iv, 3 mg/kg, i.v. 3 mg/kg, 60 min (brain), read-out: Concentration in Brain, Mean ± SEM) [ng/g]	concentration at 120 min ([12]; brain, po, 10 mg/kg, p.o. 10 mg/kg, first of two lines so labelled, read-out: Concentration in Brain, Mean ± SEM) [ng/g]	concentration at 120 min ([12]; brain, po, 10 mg/kg, p.o. 10 mg/kg, second of two lines so labelled, read-out: Concentration in Brain, Mean ± SEM) [ng/g]	Kp at 1 h ([12]; brain/plasma, iv, i.v. 3 mg/kg, 60 min, read-out: Brain/Plasma Ratio)	Kp at 2 h ([12]; brain/plasma, po, p.o. 10 mg/kg, read-out: Brain/Plasma Ratio)	concentration at 60 min ([12]; plasma, iv, 3 mg/kg, i.v. 3 mg/kg, 60 min (plasma), read-out: Concentration in Plasma, Mean ± SEM) [ng/mL]	concentration at 60 min ([12]; plasma, po, 10 mg/kg, p.o. 10 mg/kg, 60 min (plasma), read-out: Concentration in Plasma, Mean ± SEM) [ng/mL]	N87 Tumor Growth Inhibition TGI [9] [%]	A431 Tumor Growth Inhibition TGI [10] [%]
Nc1ncnc(Nc2ccc(OCc3cccc(F)c3)c(Cl)c2)c1/C=N/OCCN1CCCCC1 [Cpd 94, (5E)-4-amino-6-[3-chloro-4-(3-fluoro-benzyloxy)-phenylamino]-pyrimidine-5-carbaldehyde O-(2-piperidin-1-yl-ethyl)-oxime]	20	40	6100	1000	1000	500	500	400									47.1	66
COCCNCCCO/N=C/c1c(N)ncnc1Nc1ccc(OCc2ccccc2)c(Cl)c1 [Cpd 115, (5E)-4-amino-6-(4-benzyloxy-3-chloro-phenylamino)-pyrimidine-5-carbaldehyde O-[3-(2-methoxy-ethylamino)-propyl]-oxime]																	50.2	4
Nc1ncnc(Nc2ccc(OCc3ccccc3)c(Cl)c2)c1/C=N/OCc1ccccn1 [Cpd 114, (5E)-4-amino-6-(4-benzyloxy-3-chloro-phenylamino)-pyrimidine-5-carbaldehyde O-pyridin-2-ylmethyl-oxime]																	47	−3
